Assay results reported in article PMC7961380, “A Systematic Study of the In Vitro Pharmacokinetics and Estimated Human In Vivo Clearance of Indole and Indazole-3-Carboxamide Synthetic Cannabinoid Receptor Agonists Detected on the Illicit Drug Market” (Molecules, 2021).
“And” between values parts separate entries of the source, which are not always exact repeats. Equal entries are not always repeated. Where two headings read alike, the source gives them in different places.

Columns and labels:
[1] = Plasma protein binding by equilibrium dialysis; assay type: in vitro ADME, human; details: 37 °C; for fraction unbound at 5 h, 10 µg mL^−1: human, pooled human plasma, pH 7.4, equilibrium dialysis 5 h
[2] = Metabolic stability, pooled human liver microsome incubations; details: for Predicted In Vivo Hepatic Clearance, CLH: from pHLM CLint, well-stirred model with plasma fu, Q 21 mL min^−1 kg^−1; for CLint scaled at 0.5 µM / half-life at 0.5 µM: human, microsomes; for CLint scaled at 0.5 µM: pH 7.4, Intrinsic clearance; for half-life at 0.5 µM: pH 7.4, T1/2 (min), pHLM 0.5 mg mL^−1, 0.5 µM, NADPH, 37 °C; for half-life at 0.5 µM / Microsomal Intrinsic Clearance, CLint micr: n ≥ 3 ± SD
[3] = Short-term plasma stability with and without esterase inhibitors; details: human, pH 7.4, Parent Compound Remaining (%), 3 h, 37 °C
[4] = Metabolic stability, pooled human cryopreserved hepatocyte incubations; details: human, hepatocytes; for CLint scaled at 0.5 µM: Intrinsic clearance, pHHeps, alternative hepatocyte cell density 99x10^6 hepatocytes per gram liver
[5] = test system: pooled human cryopreserved hepatocytes (pHHeps); test: as above; details: for Predicted In Vivo Hepatic Clearance, CLH: from pHHeps CLint, well-stirred model with plasma fu, Q 21 mL min^−1 kg^−1
[6] = 10 µg mL^−1, read-out: PPB (%) (converted)
[7] = plasma, read-out: Fraction Unbound (fu)
[8] = pHLM, alternative microsomal scaling factor 32 mg microsomal protein per gram liver
[9] = pHLM, alternative microsomal scaling factor 45 mg microsomal protein per gram liver
[10] = pHLM, scaling factor 32 mg microsomal protein per gram liver
[11] = pHLM, scaling factor 45 mg microsomal protein per gram liver
[12] = Esterase Inhibitors, pH 7.4, BNPP and PMSF 500 µM each
[13] = plasma, No Esterase Inhibitors, pH 7.4, pooled human plasma
[14] = T1/2 (min), pHHeps 0.25 million cells mL^−1, 0.5 µM, 37 °C, n ≥ 3 ± SD
[15] = pHHeps, 99x10^6 hepatocytes per gram liver

## COC(=O)[C@@H](NC(=O)c1nn(CCCCCF)c2ccccc12)C(C)C [(S)-5F-AMB-PINACA (10), methyl [1-(5-fluoropentyl)-1H-indazole-3-carbonyl]valinate]
[1]; [6]
  fraction unbound at 5 h, 10 µg mL^−1: 0.058
[1]; [7]
  fraction unbound at 5 h, 10 µg mL^−1: 0.058 ± 0.0008
[2]
  Predicted In Vivo Hepatic Clearance, CLH: 17.79 mL/min/kg and 17.79 ± 0.20 mL/min/kg
  half-life at 0.5 µM: 0.9 ± 0.07 min
[2]; from pHLM incubations
  Hepatic extraction ratio, EH: 0.85 and 0.85 ± 0.010
[2]; [8]
  CLint scaled at 0.5 µM: 1230 mL/min/kg
[2]; [9]
  CLint scaled at 0.5 µM: 1730 ± 133 mL/min/kg
[2]; pHLM, 3 min
  % parent compound remaining, Average: 10.6%
[2]; pHLM, 6 min
  % parent compound remaining, Average: 1.8%
[2]; pHLM, 9 min
  % parent compound remaining, Average: 0.0%
[2]; pHLM, 15 min
  % parent compound remaining, Average: 0.0%
[2]; pHLM, 30 min
  % parent compound remaining, Average: 0.0%
[2]; pHLM
  Microsomal Intrinsic Clearance, CLint micr: 1.494 ± 0.115 mL min^−1 mg Microsomal Protein^−1
[2]; [10]
  Hepatic extraction ratio, EH: 0.77 ± 0.013
  Predicted in vivo hepatic clearance, CLH: 16.21 mL/min/kg
[2]; [11]
  Hepatic extraction ratio, EH: 0.83 ± 0.011
  Predicted in vivo hepatic clearance, CLH: 17.35 ± 0.22 mL/min/kg
[3]; [12]
  remaining at 3 h, 5 µM: 89.8 ± 1.5%
[3]; [13]
  remaining at 3 h, 5 µM: 93 ± 6.1%
[4]
  CLint scaled at 0.5 µM: 2220 ± 115 mL/min/kg
[4]; [14]
  half-life at 0.5 µM: 3.2 ± 0.16 min
[5]
  Predicted In Vivo Hepatic Clearance, CLH: 18.25 mL/min/kg and 18.25 ± 0.12 mL/min/kg
[5]; from pHHeps incubations
  Hepatic extraction ratio, EH: 0.87 and 0.87 ± 0.006
[5]; [15]
  Hepatic extraction ratio, EH: 0.86 ± 0.006
  Predicted in vivo hepatic clearance, CLH: 18.06 ± 0.13 mL/min/kg
[5]; pHHeps, 3 min
  % parent compound remaining, Average: 60.1%
[5]; pHHeps, 6 min
  % parent compound remaining, Average: 23.2%
[5]; pHHeps, 9 min
  % parent compound remaining, Average: 11.4%
[5]; pHHeps, 15 min
  % parent compound remaining, Average: 3.0%
[5]; pHHeps, 30 min
  % parent compound remaining, Average: 0.3%
[5]; pHHeps, 45 min
  % parent compound remaining, Average: 0.1%
[5]; pHHeps, 60 min
  % parent compound remaining, Average: 0.2%

## COC(=O)[C@@H](NC(=O)c1cn(CCCCCF)c2ccccc12)C(C)(C)C [(S)-5F-MDMB-PICA (3), methyl 2-[1-(5-fluoropentyl)-1H-indole-3-carboxamido]-3,3-dimethylbutanoate]
[1]; [6]
  fraction unbound at 5 h, 10 µg mL^−1: 0.062
[1]; [7]
  fraction unbound at 5 h, 10 µg mL^−1: 0.062 ± 0.0007
[2]
  Predicted In Vivo Hepatic Clearance, CLH: 8.01 ± 0.84 mL/min/kg
  half-life at 0.5 µM: 9 ± 1.4 min
[2]; from pHLM incubations
  Hepatic extraction ratio, EH: 0.38 ± 0.04
[2]; [8]
  CLint scaled at 0.5 µM: 128 mL/min/kg
[2]; [9]
  CLint scaled at 0.5 µM: 181 ± 31.6 mL/min/kg
[2]; pHLM, 3 min
  % parent compound remaining, Average: 63.9%
[2]; pHLM, 6 min
  % parent compound remaining, Average: 56.3%
[2]; pHLM, 9 min
  % parent compound remaining, Average: 49.2%
[2]; pHLM, 15 min
  % parent compound remaining, Average: 32.1%
[2]; pHLM, 30 min
  % parent compound remaining, Average: 12.8%
[2]; pHLM
  Microsomal Intrinsic Clearance, CLint micr: 0.156 ± 0.027 mL min^−1 mg Microsomal Protein^−1
[2]; [10]
  Hepatic extraction ratio, EH: 0.27 ± 0.034
  Predicted in vivo hepatic clearance, CLH: 5.75 mL/min/kg
[2]; [11]
  Hepatic extraction ratio, EH: 0.35 ± 0.038
  Predicted in vivo hepatic clearance, CLH: 7.27 ± 0.81 mL/min/kg
[3]; [12]
  remaining at 3 h, 5 µM: 99.5 ± 5.8%
[3]; [13]
  remaining at 3 h, 5 µM: 97.3 ± 6.4%
[4]
  CLint scaled at 0.5 µM: 188 mL/min/kg
[4]; [14]
  half-life at 0.5 µM: 38 ± 4.6 min
[5]
  Predicted In Vivo Hepatic Clearance, CLH: 7.87 ± 0.58 mL/min/kg
[5]; from pHHeps incubations
  Hepatic extraction ratio, EH: 0.37 ± 0.027
[5]; [15]
  Hepatic extraction ratio, EH: 0.36 ± 0.027
  Predicted in vivo hepatic clearance, CLH: 7.49 ± 0.56 mL/min/kg
[5]; pHHeps, 3 min
  % parent compound remaining, Average: 96.7%
[5]; pHHeps, 6 min
  % parent compound remaining, Average: 91.2%
[5]; pHHeps, 9 min
  % parent compound remaining, Average: 90.7%
[5]; pHHeps, 15 min
  % parent compound remaining, Average: 77.0%
[5]; pHHeps, 30 min
  % parent compound remaining, Average: 57.6%
[5]; pHHeps, 45 min
  % parent compound remaining, Average: 42.5%
[5]; pHHeps, 60 min
  % parent compound remaining, Average: 30.9%

## COC(=O)[C@@H](NC(=O)c1nn(CCCCCF)c2ccccc12)C(C)(C)C [(S)-5F-MDMB-PINACA (2), methyl 2-[1-(5-fluoropentyl)-1H-indazole-3-carboxamido]-3,3-dimethylbutanoate]
[1]; equilibrium dialysis 5 h, 10 µg mL^−1
  PPB (%): 97.8 ± 0.19%
[1]; equilibrium dialysis 5 h, plasma
  Fraction Unbound (fu): 0.022 ± 0.0019
[2]
  Predicted In Vivo Hepatic Clearance, CLH: 4.76 ± 0.17 mL/min/kg
  half-life at 0.5 µM: 6.7 ± 0.31 min
[2]; from pHLM incubations
  Hepatic extraction ratio, EH: 0.23 ± 0.008
[2]; [8]
  CLint scaled at 0.5 µM: 171 mL/min/kg
[2]; [9]
  CLint scaled at 0.5 µM: 240 ± 11 mL/min/kg
[2]; pHLM, 3 min
  % parent compound remaining, Average: 69.9%
[2]; pHLM, 6 min
  % parent compound remaining, Average: 51.7%
[2]; pHLM, 9 min
  % parent compound remaining, Average: 39.0%
[2]; pHLM, 15 min
  % parent compound remaining, Average: 22.7%
[2]; pHLM, 30 min
  % parent compound remaining, Average: 6.1%
[2]; pHLM
  Microsomal Intrinsic Clearance, CLint micr: 0.207 ± 0.009 mL min^−1 mg Microsomal Protein^−1
[2]; [10]
  Hepatic extraction ratio, EH: 0.15 ± 0.006
  Predicted in vivo hepatic clearance, CLH: 3.18 mL/min/kg
[2]; [11]
  Hepatic extraction ratio, EH: 0.20 ± 0.007
  Predicted in vivo hepatic clearance, CLH: 4.22 ± 0.15 mL/min/kg
[3]; [12]
  remaining at 3 h, 5 µM: 97 ± 1.1%
[3]; [13]
  remaining at 3 h, 5 µM: 92.5 ± 10.2%
[4]
  CLint scaled at 0.5 µM: 559 mL/min/kg
[4]; [14]
  half-life at 0.5 µM: 13 ± 3.3 min
[4]; half-life, pHHep lot HUE50-N
  half-life at 0.5 µM: 13.3 ± 3.4 min
[5]
  Predicted In Vivo Hepatic Clearance, CLH: 8.05 ± 1.15 mL/min/kg
[5]; from pHHeps incubations
  Hepatic extraction ratio, EH: 0.38 ± 0.055
[5]; pHHep lot HUE50-P
  half-life: 13.2 ± 3.4 min
[5]; [15]
  Hepatic extraction ratio, EH: 0.37
  Predicted in vivo hepatic clearance, CLH: 7.67 mL/min/kg
[5]; pHHeps, 3 min
  % parent compound remaining, Average: 77.3%
[5]; pHHeps, 6 min
  % parent compound remaining, Average: 66.9%
[5]; pHHeps, 9 min
  % parent compound remaining, Average: 57.5%
[5]; pHHeps, 15 min
  % parent compound remaining, Average: 48.3%
[5]; pHHeps, 30 min
  % parent compound remaining, Average: 21.1%
[5]; pHHeps, 45 min
  % parent compound remaining, Average: 10.6%
[5]; pHHeps, 60 min
  % parent compound remaining, Average: 5.6%
